Measurements from ChEMBL document CHEMBL4507295 (2021).

Assays:
[1] = biological target: 5'-AMP-activated protein kinase catalytic subunit alpha-2 (Homo sapiens) (UniProt P54646); conditions: Compound concentration 1000.0 nM
[2] = biological target: Cyclin-dependent kinase 11B (Homo sapiens) (UniProt P21127); conditions: Compound concentration 1000.0 nM
[3] = biological target: Serine/threonine-protein kinase DCLK3 (Homo sapiens) (UniProt Q9C098); conditions: Compound concentration 1000.0 nM
[4] = biological target: Mitogen-activated protein kinase kinase kinase 12 (Homo sapiens) (UniProt Q12852); conditions: Compound concentration 1000.0 nM
Chain of Mitogen-activated protein kinase kinase kinase 12 (Homo sapiens) (Q12852 whole entry): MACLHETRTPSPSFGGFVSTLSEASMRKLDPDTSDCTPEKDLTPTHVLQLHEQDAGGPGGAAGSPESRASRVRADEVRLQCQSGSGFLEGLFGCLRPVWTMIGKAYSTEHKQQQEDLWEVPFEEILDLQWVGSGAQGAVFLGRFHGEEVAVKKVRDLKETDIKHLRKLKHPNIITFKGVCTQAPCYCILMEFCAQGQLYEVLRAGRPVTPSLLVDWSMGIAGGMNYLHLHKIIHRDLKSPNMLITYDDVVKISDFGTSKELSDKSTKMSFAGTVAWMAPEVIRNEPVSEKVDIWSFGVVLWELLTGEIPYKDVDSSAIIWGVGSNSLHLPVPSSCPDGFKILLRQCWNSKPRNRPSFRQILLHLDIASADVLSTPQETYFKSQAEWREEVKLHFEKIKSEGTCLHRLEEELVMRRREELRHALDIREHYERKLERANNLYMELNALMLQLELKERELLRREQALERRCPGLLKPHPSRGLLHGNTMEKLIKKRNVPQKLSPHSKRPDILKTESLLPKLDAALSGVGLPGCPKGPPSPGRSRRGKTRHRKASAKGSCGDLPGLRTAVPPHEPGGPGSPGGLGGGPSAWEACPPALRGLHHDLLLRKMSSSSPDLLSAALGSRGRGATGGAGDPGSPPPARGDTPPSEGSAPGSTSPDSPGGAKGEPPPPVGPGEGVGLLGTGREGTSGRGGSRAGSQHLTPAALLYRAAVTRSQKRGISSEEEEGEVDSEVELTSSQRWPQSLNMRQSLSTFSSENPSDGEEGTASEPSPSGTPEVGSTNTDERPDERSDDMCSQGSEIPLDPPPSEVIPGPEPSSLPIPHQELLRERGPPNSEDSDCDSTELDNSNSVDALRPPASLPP

[5] = biological target: Dual specificity tyrosine-phosphorylation-regulated kinase 1A (Homo sapiens) (UniProt Q13627); conditions: Compound concentration 1000.0 nM
[6] = biological target: Fibroblast growth factor receptor 3 (Homo sapiens) (UniProt P22607); conditions: Compound concentration 1000.0 nM
Chain of Fibroblast growth factor receptor 3 (Homo sapiens) (P22607 23-806 limits assumed): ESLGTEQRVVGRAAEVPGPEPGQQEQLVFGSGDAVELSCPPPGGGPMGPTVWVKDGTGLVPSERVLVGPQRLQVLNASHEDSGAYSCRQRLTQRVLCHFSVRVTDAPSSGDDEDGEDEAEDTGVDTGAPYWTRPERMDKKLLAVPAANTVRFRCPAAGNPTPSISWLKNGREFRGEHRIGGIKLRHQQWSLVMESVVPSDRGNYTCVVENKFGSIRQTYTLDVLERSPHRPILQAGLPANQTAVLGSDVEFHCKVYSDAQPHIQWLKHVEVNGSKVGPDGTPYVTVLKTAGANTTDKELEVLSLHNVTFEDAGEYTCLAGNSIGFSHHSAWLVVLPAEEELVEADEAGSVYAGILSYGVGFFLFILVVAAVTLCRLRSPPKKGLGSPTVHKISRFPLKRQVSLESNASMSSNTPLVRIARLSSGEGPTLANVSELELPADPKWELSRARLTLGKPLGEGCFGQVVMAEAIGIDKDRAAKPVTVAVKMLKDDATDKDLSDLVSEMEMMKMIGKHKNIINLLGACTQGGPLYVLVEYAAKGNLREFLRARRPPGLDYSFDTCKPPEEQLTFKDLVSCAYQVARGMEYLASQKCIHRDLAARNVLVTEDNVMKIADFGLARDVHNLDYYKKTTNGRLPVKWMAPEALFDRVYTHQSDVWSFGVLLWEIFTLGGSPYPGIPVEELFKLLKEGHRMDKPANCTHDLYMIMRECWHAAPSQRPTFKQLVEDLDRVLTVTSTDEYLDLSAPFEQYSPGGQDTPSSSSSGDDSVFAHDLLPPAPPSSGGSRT

[7] = system: Receptor-type tyrosine-protein kinase FLT3 (Homo sapiens), P36888 [D835V]; conditions: Compound concentration 1000.0 nM
[8] = biological target: Homeodomain-interacting protein kinase 1 (Homo sapiens) (UniProt Q86Z02); conditions: Compound concentration 1000.0 nM
[9] = biological target: Serine/threonine-protein kinase ICK (Homo sapiens) (UniProt Q9UPZ9); conditions: Compound concentration 1000.0 nM
[10] = biological target: Inhibitor of nuclear factor kappa-B kinase subunit epsilon (Homo sapiens) (UniProt Q14164); conditions: Compound concentration 1000.0 nM
[11] = biological target: Interleukin-1 receptor-associated kinase 4 (Homo sapiens) (UniProt Q9NWZ3); conditions: Compound concentration 1000.0 nM
[12] = biological target: Mitogen-activated protein kinase kinase kinase 13 (Homo sapiens) (UniProt O43283); conditions: Compound concentration 1000.0 nM
[13] = biological target: Mitogen-activated protein kinase kinase kinase 4 (Homo sapiens) (UniProt Q9Y6R4); conditions: Compound concentration 1000.0 nM
[14] = biological target: Serine/threonine-protein kinase MARK2 (Homo sapiens) (UniProt Q7KZI7); conditions: Compound concentration 1000.0 nM
Chain of Serine/threonine-protein kinase MARK2 (Homo sapiens) (Q7KZI7 whole entry): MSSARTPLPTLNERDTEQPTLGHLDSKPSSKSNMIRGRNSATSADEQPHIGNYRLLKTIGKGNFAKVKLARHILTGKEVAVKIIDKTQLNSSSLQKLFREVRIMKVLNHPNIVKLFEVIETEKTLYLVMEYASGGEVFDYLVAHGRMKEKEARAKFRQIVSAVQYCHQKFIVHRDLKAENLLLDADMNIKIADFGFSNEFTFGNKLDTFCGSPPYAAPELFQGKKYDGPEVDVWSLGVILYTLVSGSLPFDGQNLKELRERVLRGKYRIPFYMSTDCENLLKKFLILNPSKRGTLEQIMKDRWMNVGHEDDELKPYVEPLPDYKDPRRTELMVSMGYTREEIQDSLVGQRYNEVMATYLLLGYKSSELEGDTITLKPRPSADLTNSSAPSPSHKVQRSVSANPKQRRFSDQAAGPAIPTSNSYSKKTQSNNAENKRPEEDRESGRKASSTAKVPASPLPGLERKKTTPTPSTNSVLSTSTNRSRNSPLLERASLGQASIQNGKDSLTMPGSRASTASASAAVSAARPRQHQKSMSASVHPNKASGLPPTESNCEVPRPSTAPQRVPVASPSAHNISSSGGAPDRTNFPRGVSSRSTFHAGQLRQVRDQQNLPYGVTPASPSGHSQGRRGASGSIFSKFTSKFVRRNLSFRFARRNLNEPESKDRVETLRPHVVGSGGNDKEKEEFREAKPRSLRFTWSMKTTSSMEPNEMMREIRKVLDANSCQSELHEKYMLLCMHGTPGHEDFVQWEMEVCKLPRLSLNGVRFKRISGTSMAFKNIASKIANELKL

[15] = biological target: Maternal embryonic leucine zipper kinase (Homo sapiens) (UniProt Q14680); conditions: Compound concentration 1000.0 nM
[16] = biological target: Serine/threonine-protein kinase MRCK alpha (Homo sapiens) (UniProt Q5VT25); conditions: Compound concentration 1000.0 nM
[17] = biological target: Serine/threonine-protein kinase mTOR (Homo sapiens) (UniProt P42345); conditions: Compound concentration 1000.0 nM
[18] = biological target: Serine/threonine-protein kinase Nek7 (Homo sapiens) (UniProt Q8TDX7); conditions: Compound concentration 1000.0 nM
[19] = biological target: Serine/threonine-protein kinase Nek9 (Homo sapiens) (UniProt Q8TD19); conditions: Compound concentration 1000.0 nM
[20] = biological target: Mitogen-activated protein kinase 13 (Homo sapiens) (UniProt O15264); conditions: Compound concentration 1000.0 nM
[21] = biological target: cAMP-dependent protein kinase catalytic subunit alpha (Homo sapiens) (UniProt P17612); conditions: Compound concentration 1000.0 nM
[22] = biological target: Serine/threonine-protein kinase PLK2 (Homo sapiens) (UniProt Q9NYY3); conditions: Compound concentration 1000.0 nM
Chain of Serine/threonine-protein kinase PLK2 (Homo sapiens) (Q9NYY3 whole entry, looked up): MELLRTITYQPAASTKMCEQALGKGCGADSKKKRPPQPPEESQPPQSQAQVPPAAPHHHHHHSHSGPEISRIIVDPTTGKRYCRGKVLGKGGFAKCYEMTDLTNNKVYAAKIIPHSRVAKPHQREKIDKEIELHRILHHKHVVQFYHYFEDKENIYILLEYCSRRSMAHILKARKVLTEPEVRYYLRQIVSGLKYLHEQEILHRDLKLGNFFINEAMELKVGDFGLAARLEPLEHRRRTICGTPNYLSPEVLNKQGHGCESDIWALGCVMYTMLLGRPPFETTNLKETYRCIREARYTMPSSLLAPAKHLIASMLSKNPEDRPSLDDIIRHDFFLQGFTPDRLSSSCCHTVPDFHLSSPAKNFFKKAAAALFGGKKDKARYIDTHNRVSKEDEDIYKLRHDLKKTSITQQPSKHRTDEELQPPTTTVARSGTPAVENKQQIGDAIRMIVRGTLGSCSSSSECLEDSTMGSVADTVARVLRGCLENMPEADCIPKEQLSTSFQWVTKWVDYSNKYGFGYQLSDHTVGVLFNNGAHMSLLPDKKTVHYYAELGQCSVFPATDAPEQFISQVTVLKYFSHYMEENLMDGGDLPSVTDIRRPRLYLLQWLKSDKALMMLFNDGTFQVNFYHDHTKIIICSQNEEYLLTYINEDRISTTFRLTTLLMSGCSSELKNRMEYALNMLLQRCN

[23] = biological target: Protein kinase C epsilon type (Homo sapiens) (UniProt Q02156); conditions: Compound concentration 1000.0 nM
[24] = biological target: cGMP-dependent protein kinase 2 (Homo sapiens) (UniProt Q13237); conditions: Compound concentration 1000.0 nM
[25] = biological target: Serine/threonine-protein kinase PRP4 homolog (Homo sapiens) (UniProt Q13523); conditions: Compound concentration 1000.0 nM
[26] = biological target: Rho-associated protein kinase 1 (Homo sapiens) (UniProt Q13464); conditions: Compound concentration 1000.0 nM
[27] = biological target: Ribosomal protein S6 kinase alpha-2 (Homo sapiens) (UniProt Q15349); conditions: Compound concentration 1000.0 nM
Chain of Ribosomal protein S6 kinase alpha-2 (Homo sapiens) (Q15349 whole entry): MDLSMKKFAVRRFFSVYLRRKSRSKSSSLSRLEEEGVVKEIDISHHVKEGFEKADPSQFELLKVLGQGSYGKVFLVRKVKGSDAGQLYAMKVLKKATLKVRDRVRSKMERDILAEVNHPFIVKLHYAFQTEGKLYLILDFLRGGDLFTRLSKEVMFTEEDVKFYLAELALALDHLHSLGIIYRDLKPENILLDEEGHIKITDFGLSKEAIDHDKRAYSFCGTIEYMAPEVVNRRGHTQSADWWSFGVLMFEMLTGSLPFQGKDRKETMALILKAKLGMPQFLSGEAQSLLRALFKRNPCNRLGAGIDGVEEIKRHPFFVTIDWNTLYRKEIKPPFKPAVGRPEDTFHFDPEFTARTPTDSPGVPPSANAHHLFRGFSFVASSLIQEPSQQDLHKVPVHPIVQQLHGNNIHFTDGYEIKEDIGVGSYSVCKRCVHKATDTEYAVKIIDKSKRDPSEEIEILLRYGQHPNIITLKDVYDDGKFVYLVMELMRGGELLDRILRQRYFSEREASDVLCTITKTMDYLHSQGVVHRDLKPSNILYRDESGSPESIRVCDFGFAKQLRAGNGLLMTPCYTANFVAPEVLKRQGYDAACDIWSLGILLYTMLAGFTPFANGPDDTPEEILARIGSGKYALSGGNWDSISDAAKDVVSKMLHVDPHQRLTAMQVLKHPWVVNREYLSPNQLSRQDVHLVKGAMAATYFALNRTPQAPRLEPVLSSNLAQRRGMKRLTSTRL

[28] = biological target: Serine/threonine-protein kinase SBK1 (Homo sapiens) (UniProt Q52WX2); conditions: Compound concentration 1000.0 nM
[29] = biological target: Uncharacterized serine/threonine-protein kinase SBK3 (Homo sapiens) (UniProt P0C264); conditions: Compound concentration 1000.0 nM
[30] = biological target: Serine/threonine-protein kinase Sgk3 (Homo sapiens) (UniProt Q96BR1); conditions: Compound concentration 1000.0 nM
[31] = biological target: Serine/threonine-protein kinase SIK1 (Homo sapiens) (UniProt P57059); conditions: Compound concentration 1000.0 nM
[32] = biological target: Serine/threonine-protein kinase TAO2 (Homo sapiens) (UniProt Q9UL54); conditions: Compound concentration 1000.0 nM
Chain of Serine/threonine-protein kinase TAO2 (Homo sapiens) (Q9UL54 whole entry): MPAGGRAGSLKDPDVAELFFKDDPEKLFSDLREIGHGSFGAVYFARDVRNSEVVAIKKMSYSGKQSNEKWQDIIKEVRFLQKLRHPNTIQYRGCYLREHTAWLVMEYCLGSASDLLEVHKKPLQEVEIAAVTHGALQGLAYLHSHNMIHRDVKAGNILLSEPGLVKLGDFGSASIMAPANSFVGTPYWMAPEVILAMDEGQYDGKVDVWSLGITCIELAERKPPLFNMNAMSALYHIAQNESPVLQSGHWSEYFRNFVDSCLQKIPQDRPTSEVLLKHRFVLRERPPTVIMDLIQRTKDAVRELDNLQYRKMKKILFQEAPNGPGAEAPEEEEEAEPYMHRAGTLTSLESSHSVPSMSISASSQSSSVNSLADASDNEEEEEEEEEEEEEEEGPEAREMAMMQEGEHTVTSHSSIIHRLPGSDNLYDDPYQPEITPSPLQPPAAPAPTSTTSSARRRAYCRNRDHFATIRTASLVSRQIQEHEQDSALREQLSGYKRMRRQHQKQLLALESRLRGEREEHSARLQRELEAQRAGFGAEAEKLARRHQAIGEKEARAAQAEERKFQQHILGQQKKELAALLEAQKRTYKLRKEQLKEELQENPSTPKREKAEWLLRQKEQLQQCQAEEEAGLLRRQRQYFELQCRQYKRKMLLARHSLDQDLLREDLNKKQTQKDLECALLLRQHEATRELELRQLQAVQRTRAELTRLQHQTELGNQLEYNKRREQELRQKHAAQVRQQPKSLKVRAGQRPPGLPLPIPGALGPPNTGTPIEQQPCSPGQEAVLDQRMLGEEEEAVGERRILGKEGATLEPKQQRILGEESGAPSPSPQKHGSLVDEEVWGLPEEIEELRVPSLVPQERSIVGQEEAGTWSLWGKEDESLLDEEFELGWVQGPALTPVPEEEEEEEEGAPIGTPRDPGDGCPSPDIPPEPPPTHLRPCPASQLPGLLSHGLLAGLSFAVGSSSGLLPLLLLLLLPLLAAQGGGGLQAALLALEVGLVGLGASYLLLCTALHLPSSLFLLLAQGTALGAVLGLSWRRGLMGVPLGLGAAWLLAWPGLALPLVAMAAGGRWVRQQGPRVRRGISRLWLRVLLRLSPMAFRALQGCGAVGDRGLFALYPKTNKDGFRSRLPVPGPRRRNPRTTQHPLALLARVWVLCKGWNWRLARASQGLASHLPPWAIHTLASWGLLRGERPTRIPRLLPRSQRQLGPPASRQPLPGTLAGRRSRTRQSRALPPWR

[33] = biological target: Dual specificity testis-specific protein kinase 1 (Homo sapiens) (UniProt Q15569); conditions: Compound concentration 1000.0 nM
[34] = biological target: Activated CDC42 kinase 1 (Homo sapiens) (UniProt Q07912); conditions: Compound concentration 1000.0 nM
[35] = biological target: Serine/threonine-protein kinase WNK2 (Homo sapiens) (UniProt Q9Y3S1); conditions: Compound concentration 1000.0 nM
[36] = biological target: Serine/threonine-protein kinase WNK4 (Homo sapiens) (UniProt Q96J92); conditions: Compound concentration 1000.0 nM
[37] = biological target: Beta-1 adrenergic receptor (Homo sapiens) (UniProt P08588); conditions: Compound concentration 10.0 uM
[38] = biological target: T1, Muscarinic acetylcholine receptor M4 (Homo sapiens) (UniProt P08173); conditions: Compound concentration 10.0 uM
T1 sequence (whole entry): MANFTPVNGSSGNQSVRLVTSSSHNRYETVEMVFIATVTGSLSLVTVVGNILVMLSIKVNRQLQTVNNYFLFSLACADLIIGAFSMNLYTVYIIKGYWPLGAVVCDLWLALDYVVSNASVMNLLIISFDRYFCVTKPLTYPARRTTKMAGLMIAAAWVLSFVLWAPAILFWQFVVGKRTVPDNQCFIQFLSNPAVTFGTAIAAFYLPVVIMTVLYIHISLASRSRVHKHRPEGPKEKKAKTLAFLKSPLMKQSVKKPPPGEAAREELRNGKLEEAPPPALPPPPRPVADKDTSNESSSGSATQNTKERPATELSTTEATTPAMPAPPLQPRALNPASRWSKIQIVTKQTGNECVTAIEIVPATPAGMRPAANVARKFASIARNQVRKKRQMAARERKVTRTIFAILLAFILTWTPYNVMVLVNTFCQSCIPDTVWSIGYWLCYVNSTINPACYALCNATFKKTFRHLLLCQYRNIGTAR

N#CC1(c2ccccn2)CCN(Cc2cc(C(=O)O)c(=O)n3ccccc23)CC1 [MSD-M1PAM]
inactive: residual activity [1] 100% | residual activity [2] 100% | residual activity [3] 89% | residual activity [4] 93% | residual activity [5] 97% | residual activity [6] 100% | residual activity [7] 100% | residual activity [8] 100% | residual activity [9] 75% | residual activity [10] 88% | residual activity [11] 83% | residual activity [12] 78% | residual activity [13] 100% | residual activity [14] 100% | residual activity [15] 55% | residual activity [16] 100% | residual activity [17] 90% | residual activity [18] 100% | residual activity [19] 100% | residual activity [20] 100% | residual activity [21] 88% | residual activity [22] 80% | residual activity [23] 100% | residual activity [24] 95% | residual activity [25] 100% | residual activity [26] 86% | residual activity [27] 100% | residual activity [28] 83% | residual activity [29] 72% | residual activity [30] 74% | residual activity [31] 92% | residual activity [32] 97% | residual activity [33] 100% | residual activity [34] 99% | residual activity [35] 79% | residual activity [36] 75% | inhibition [37] 16.2% | inhibition [38] -2.36%

N#CC1(c2ccccn2)CCN(Cc2cc(C(=O)N3CCCC3)c(=O)n3ccccc23)CC1
inactive: residual activity [1] 100% | residual activity [2] 80% | residual activity [3] 100% | residual activity [4] 100% | residual activity [5] 94% | residual activity [6] 88% | residual activity [7] 98% | residual activity [8] 77% | residual activity [9] 100% | residual activity [10] 94% | residual activity [11] 100% | residual activity [12] 100% | residual activity [13] 90% | residual activity [14] 100% | residual activity [15] 78% | residual activity [16] 84% | residual activity [17] 58% | residual activity [18] 82% | residual activity [19] 99% | residual activity [20] 89% | residual activity [21] 88% | residual activity [22] 100% | residual activity [23] 79% | residual activity [24] 100% | residual activity [25] 78% | residual activity [26] 100% | residual activity [27] 86% | residual activity [28] 89% | residual activity [29] 100% | residual activity [30] 82% | residual activity [31] 100% | residual activity [32] 100% | residual activity [33] 90% | residual activity [34] 85% | residual activity [35] 100% | residual activity [36] 81% | inhibition [37] -5.76% | inhibition [38] -8.87%
